Experimental data as given in US20130178483A1, “Methods and Compositions for Inhibition of Bone Resorption” (Pharmacyclics, Inc., priority 2011, published 2013).

How the values were obtained:
[1] = 24 h post dose
[2] = system: human monocyte derived osteoclasts; experiment: Human monocyte derived osteoclastogenesis (M-CSF/RANKL), TRAP and actin staining; assay type: cell-based
Source text: Further, as depicted in FIG. 18, and FIG. 19, the BTK inhibitors described herein inhibit RANKL induced Btk, PLC-g, Erk and NF-kB activation of osteoclasts derived from human monocytes and murine RAW cells.
We confirmed by immunoblotting that activation of Btk mediates osteoclastogenesis induced by M-CSF and RANKL in CD14+ OC. precursor cells. Phosphorylation of Btk and its downstream PLCγ2 was induced by M-CSF/RANKL in CD14+ monocytes from human donors and mouse RAW 264.7 cells (FIG. 20A). […] At the end of 2-week culture of M-CSF/RANKL-stimulated normal donor monocytes (donor number>4) in plastic tissue culture plates, we observed a significant reduction in multinucleated mature Osteoclast (OC) numbers (TRAP+, >3 nuclei and >50 μm per OC cell, p<0.01), as well as irregular TRAP staining pattern of multinucleated OC influenced by the BtK inhibitor, in a dose-dependent fashion (FIG. 20C-E). To further assess the effects of PCI-32765 on osteoclastogenesis, OC precursor cells from human donors were cultured on glass cover slips, followed by immunofluorescence staining for actin cytoskeleton and pit formation assay for bone resorption activity. […] Most importantly, the Btk inhibitors described herein profoundly diminished bone erosion area formed by OCs cultured on dentine slices in pit formation assays, with or without dexamethasone (FIG. 21D).

[3] = system: INA-6 MM cells in implanted human bone; experiment: SCID-hu model of human multiple myeloma bone disease; assay type: in vivo, SCID-hu mice; details: 12 mg/kg, vs vehicle control
Source text: FIG. 22A-22F show inhibition of multiple myeloma (MM) cell growth and MM-induced bone lysis in a murine model of human MM by administration of a Btk inhibitor described herein. […] Tissue slides were stained with H&E and immunohistochemically analyzed for CD138 (MM), TRAP(OC), and ALP (OB). Original magnification, ×200 except for ALP (×400). […] Effects of Btk inhibitor treatment were also quantitated in the left (mouse L) and right (mouse R) normal mouse extremities (FIG. 22F)
Btk inhibition by the compounds described herein and suppression of MM cell growth and […] were studied in vivo in a mouse model of MM bone disease, the SCID-hu model (FIG. 22A). MM cell growth was quantitated by measuring soluble IL6R (sIL6R) secreted by INA-6 MM cells in murine blood, and mice were treated with a compound of Formula (A), (B), (C), or (D) following first detection of tumor growth. […] Histologic analysis and immunohistochemistry for CD138 and TRAP staining confirmed decreased numbers of MM cells and reduced bone resorption activity in the human bones retrieved from the mice treated with the compound, as compared with the control group (FIG. 22B).

[4] = system: BCR-activated calcium flux in Ramos cells; experiment: BCR-induced calcium flux assay in anti-IgM stimulated Ramos cells; details: Homo sapiens, read-out: Ramos Cell Ca Flux IC50 (nM)

Structure (SMILES): C=CC(=O)N1CCCC(n2nc(-c3ccc(Oc4ccccc4)cc3)c3c(N)ncnc32)C1 (stereo not drawn) [Compound 4, 1-(3-(4-amino-3-(4-phenoxyphenyl)-1H-pyrazolo[3,4-d]pyrimidin-1-yl)piperidin-1-yl)prop-2-en-1-one]
- levels twenty four hours post dose [1]: below the level of quantitation

Structure (SMILES): C=CC(=O)N1CCC[C@@H](n2nc(-c3ccc(Oc4ccccc4)cc3)c3c(N)ncnc32)C1 [PCI-32765]
- numbers of mature OC, treated versus normal OC cultures ([2]; human OC precursor cells on glass cover slips): Significantly reduced numbers of mature OC
- spreading area per cell and number of nuclei per OC ([2]; human OCs on glass cover slips, p<0.01): expanded spreading area per cell
- MM-induced osteolysis / bone lysis in implanted human bone ([3]; micro-CT): significantly reduced osteolysis
- osteogenic activity (ALP expression, ALP+/BS) in implanted human bone ([3]; p<0.01): enhanced osteogenic activity

Structure (SMILES): CN(C)C/C=C/C(=O)N1CCCC(n2nc(-c3ccc(Oc4ccccc4)cc3)c3c(N)ncnc32)C1 (stereo not drawn) [Compound 15, (E)-1-(3-(4-amino-3-(4-phenoxyphenyl)-1H-pyrazolo[3,4-d]pyrimidin-1-yl)piperidin-1-yl)-4-(dimethylamino)but-2-en-1-one]
- IC50 [4]: 36 nM
